Residue numbers refer to the chain shown, from its start. Where two headings read alike, the source gives them in different places.
Assays:
[1] = biological target: T1, DPB1*04:02 (Homo sapiens, UniProt P04440+P20036, A65V/A84D/A85E/L207M); experiment: competition binding assay, purified HLA DPB1*04:02
T1 sequence (P04440 30-258 A65V/A84D/A85E/L207M): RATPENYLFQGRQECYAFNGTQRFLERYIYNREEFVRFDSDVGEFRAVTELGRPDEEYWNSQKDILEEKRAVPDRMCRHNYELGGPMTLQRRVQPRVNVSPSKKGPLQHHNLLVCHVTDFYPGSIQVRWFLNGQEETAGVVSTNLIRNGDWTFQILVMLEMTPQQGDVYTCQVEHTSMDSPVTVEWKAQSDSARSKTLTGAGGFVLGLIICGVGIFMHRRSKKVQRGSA
T1 sequence (P20036 29-260): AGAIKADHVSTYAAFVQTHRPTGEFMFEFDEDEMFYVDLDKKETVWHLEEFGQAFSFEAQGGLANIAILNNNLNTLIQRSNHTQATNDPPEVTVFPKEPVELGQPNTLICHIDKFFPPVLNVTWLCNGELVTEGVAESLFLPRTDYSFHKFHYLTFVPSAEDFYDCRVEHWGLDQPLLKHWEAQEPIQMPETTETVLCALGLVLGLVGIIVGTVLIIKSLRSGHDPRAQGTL

[2] = biological target: DRB1*12:01 (Homo sapiens, UniProt P01903+P01911, A100R/A169T/D57E/D86V/F55L/H45Y/K41T/L162R/M171V/P40S/Q125H/Q178H/Q39Y/Q99D/R42G/S66L/T262R/V114A/V67L/W38E/Y59H/Y61H/Y89S); experiment: competition binding assay, purified HLA DRB1*12:01
[3] = biological target: DRB1*03:01 (Homo sapiens, UniProt P01903+P01911, A100K/A102G/A103R/A169T/F55Y/I96L/K41T/L162R/M171V/P40S/Q125H/Q178H/Q39Y/R42S/S66N/T106N/T262R/W38E/Y61H); experiment: competition binding assay, purified HLA DRB1*03:01
[4] = biological target: DRB1*01:01 (Homo sapiens, UniProt P01903+P01911, A100R/D57E/F55L/F60I/F76Y/I96L/L162R/M171V/P40L/Q125E/R42F/V115G/Y59C); experiment: competition binding assay, purified HLA DRB1*01:01
[5] = biological target: DRB1*07:01 (Homo sapiens, UniProt P01903+P01911, A100R/A102G/A103Q/D57E/D86V/E43K/F76Y/K127E/L162R/M171V/P40G/Q125H/Q99D/R33Q/R42Y/R54Q/S133A/S66F/T210M/V115G/Y107V/Y59L/Y89S); experiment: competition binding assay, purified HLA DRB1*07:01
[6] = biological target: T2, DPB1*04:01 (Homo sapiens, UniProt P04440); experiment: competition binding assay, purified HLA DPB1*04:01
T2 sequence (P04440 30-258): T1 sequence (P04440 30-258 A65V/A84D/A85E/L207M) with V36A, D55A, E56A, M178L
T2 sequence (P20036 29-260 partner): T1 sequence (P20036 29-260)

[7] = biological target: T3, DPB1*02:01 (Homo sapiens, UniProt P04440+P20036, A65V/A84D/A85E/K98E); experiment: competition binding assay, purified HLA DPB1*02:01
T3 sequence (P20036 29-260): T1 sequence (P20036 29-260)
T3 sequence (P04440 30-258 A65V/A84D/A85E/K98E): T1 sequence (P04440 30-258 A65V/A84D/A85E/L207M) with K69E, M178L

[8] = biological target: DRB5*01:01 (Homo sapiens, UniProt P01903+Q30154); experiment: competition binding assay, purified HLA DRB5*01:01
[9] = biological target: DRB1*11:01 (Homo sapiens, UniProt P01903+P01911, A100R/A169T/A87E/I96F/K41T/L162R/M171V/P40S/Q125H/Q178H/Q39Y/Q99D/R42S/S66Y/T262R/V115G/W38E); experiment: competition binding assay, purified HLA DRB1*11:01
[10] = biological target: DRB4*01:01 (Homo sapiens, UniProt P01903+P13762, G164S); experiment: competition binding assay, purified HLA DRB4*01:01
[11] = biological target: T4, DPB1*05:01 (Homo sapiens, UniProt P04440+P20036, A65V/A84E/F191V/F64L/G113D/G114E/K142R/L158P/M116V/M62Q/P115A/Q81R/R125K/T114A/T199I/T259P/V234M); experiment: competition binding assay, purified HLA DPB1*05:01
T4 sequence (P20036 29-260 M62Q/Q81R/T114A/K142R/L158P/F191V/T259P): T1 sequence (P20036 29-260) with M34Q, Q53R, T86A, K114R, L130P, F163V, T231P
T4 sequence (P04440 30-258 F64L/A65V/A84E/G113D/G114E/P115A/M116V/R125K/T199I/V234M): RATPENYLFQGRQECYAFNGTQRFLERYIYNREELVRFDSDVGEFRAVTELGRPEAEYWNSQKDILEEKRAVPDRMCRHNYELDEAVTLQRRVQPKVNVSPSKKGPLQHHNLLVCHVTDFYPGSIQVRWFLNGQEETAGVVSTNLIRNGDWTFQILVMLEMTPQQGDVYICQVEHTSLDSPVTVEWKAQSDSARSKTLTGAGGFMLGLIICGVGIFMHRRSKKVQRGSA

[12] = biological target: DRB3*02:02 (Homo sapiens, UniProt P01903+P79483, A212P/D57E/F66Y/L67A/R103Q/R218S/R40L/S89Y/T80R/V86D/Y55F/Y59H); experiment: competition binding assay, purified HLA DRB3*02:02
[13] = biological target: DRB1*04:05 (Homo sapiens, UniProt P01903+P01911, A100R/A169T/D86S/F76Y/I96L/K127E/L162R/M171V/N62H/P40V/Q125Y/R42H/S133A/S149N/S66Y/V115G/V209L/W38E); experiment: competition binding assay, purified HLA DRB1*04:05
[14] = purified HLA, radiolabeled peptide competition, nM, read-out: binding to DRB1*12:01 (IC50)
[15] = purified HLA, radiolabeled peptide competition, nM, read-out: binding to DRB1*03:01 (IC50)
[16] = purified HLA, radiolabeled peptide competition, nM, read-out: binding to DRB1*01:01 (IC50)
[17] = purified HLA, radiolabeled peptide competition, nM, read-out: binding to DRB1*07:01 (IC50)
[18] = purified HLA, radiolabeled peptide competition, nM, read-out: binding to DRB5*01:01 (IC50)
[19] = purified HLA, radiolabeled peptide competition, nM, read-out: binding to DRB1*11:01 (IC50)
[20] = purified HLA, radiolabeled peptide competition, nM, read-out: binding to DRB4*01:01 (IC50)
[21] = purified HLA, radiolabeled peptide competition, nM, read-out: binding to DRB3*02:02 (IC50)
[22] = purified HLA, radiolabeled peptide competition, nM, read-out: binding to DRB1*04:05 (IC50)

SMILES	IC50 [1]	IC50 [2, 14]	IC50 [3, 15]	IC50 [4, 16]	IC50 [5, 17]	IC50 [6]	IC50 [7]	IC50 [8, 18]	IC50 [9, 19]	IC50 [10, 20]	IC50 [11]	IC50 [12, 21]	IC50 [13, 22]	further results
CSCC[C@H](NC(=O)[C@@H](N)CCC(=O)O)C(=O)N1CCC[C@H]1C(=O)N[C@@H](COP(=O)(O)O)C(=O)N[C@@H](CCC(=O)O)C(=O)N[C@@H](CCC(=O)O)C(=O)NCC(=O)N[C@@H](Cc1ccc(O)cc1)C(=O)N[C@@H](CCC(N)=O)C(=O)N[C@@H](CC(=O)O)C(=O)N[C@@H](Cc1ccc(O)cc1)C(=O)N[C@@H](CCC(=O)O)C(=O)N1CCC[C@H]1C(=O)N[C@@H](CCC(=O)O)C(=O)N[C@@H](C)C(=O)O	> 10000 nM	> 10000 nM	> 10000 nM	> 10000 nM	> 10000 nM	> 10000 nM	> 10000 nM	> 10000 nM	> 10000 nM	> 10000 nM	> 10000 nM	> 10000 nM	> 10000 nM	–
CSCC[C@H](NC(=O)[C@H](CCC(=O)O)NC(=O)[C@H](Cc1ccc(O)cc1)NC(=O)[C@H](C)NC(=O)[C@H](CCC(=O)O)NC(=O)[C@H](CC(N)=O)NC(=O)[C@@H](N)CC(=O)O)C(=O)N1CCC[C@H]1C(=O)N[C@@H](COP(=O)(O)O)C(=O)N[C@@H](CCC(=O)O)C(=O)N[C@@H](CCC(=O)O)C(=O)NCC(=O)N[C@@H](Cc1ccc(O)cc1)C(=O)N[C@@H](CCC(N)=O)C(=O)N[C@@H](CC(=O)O)C(=O)O	–	> 10000 nM	> 10000 nM	> 10000 nM	> 10000 nM	–	–	> 10000 nM	> 10000 nM	> 10000 nM	–	> 10000 nM	> 10000 nM	IC50 ([1]; purified HLA, radiolabeled peptide competition, nM, read-out: binding to DPB1*04:02 (IC50)): > 10000 nM; IC50 ([6]; purified HLA, radiolabeled peptide competition, nM, read-out: binding to DPB1*04:01 (IC50)): > 10000 nM; IC50 ([7]; purified HLA, radiolabeled peptide competition, nM, read-out: binding to DPB1*02:01 (IC50)): > 10000 nM; IC50 ([11]; purified HLA, radiolabeled peptide competition, nM, read-out: binding to DPB1*05:01 (IC50)): > 10000 nM
CSCC[C@H](NC(=O)[C@H](CCC(=O)O)NC(=O)[C@H](Cc1ccc(O)cc1)NC(=O)[C@H](C)NC(=O)[C@H](CCC(=O)O)NC(=O)[C@H](CC(N)=O)NC(=O)[C@@H](N)CC(=O)O)C(=O)N1CCC[C@H]1C(=O)N[C@@H](CO)C(=O)N[C@@H](CCC(=O)O)C(=O)N[C@@H](CCC(=O)O)C(=O)NCC(=O)N[C@@H](Cc1ccc(O)cc1)C(=O)N[C@@H](CCC(N)=O)C(=O)N[C@@H](CC(=O)O)C(=O)O	> 10000 nM	–	–	–	–	> 10000 nM	> 10000 nM	–	–	–	> 10000 nM	–	–	IC50 [2]: > 10000 nM; IC50 [3]: > 10000 nM; IC50 [4]: > 10000 nM; IC50 [5]: > 10000 nM; IC50 [8]: > 10000 nM; IC50 [9]: > 10000 nM; IC50 [10]: > 10000 nM; IC50 [12]: > 10000 nM; IC50 [13]: 1940 nM

— patent US20200095296A1, “USE OF PEPTIDES AS BIOMARKERS IN THE DIAGNOSIS, CONFIRMATION AND TREATMENT OF A NEUROLOGICAL DISORDER AND TCR AND/OR HLA IMMUNOPROFILING IN NEURODEGENERATIVE DISEASE” (THE TRUSTEES OF COLUMBIA UNIVERSITY IN THE CITY OF NEW YORK, priority 2017, published 2020)
